# What was measured:
# Type in all cases: cell-based, influenza virus
# [1] = system: Influenza Type A H3N2 (swine)
# Influenza Type B = system: Influenza Type B
# [2] = system: Influenza Type A H9N2 (avian)
# [3] = system: Influenza Type A H1N1 (PR8)
Compound,Hemagglutination inhibition concentration [1] [mM],Hemagglutination inhibition concentration (Influenza Type B) [mM],Hemagglutination inhibition concentration [2] [mM],Hemagglutination inhibition concentration [3] [mM]
"CC(=O)N[C@H]1[C@H]([C@H](O)[C@H](O)CO)O[C@@](O[C@H]2[C@@H](O)[C@@H](CO)O[C@@H](O[C@H]3[C@H](O)[C@@H](O)C(O)O[C@@H]3CO)[C@@H]2O)(C(=O)O)C[C@@H]1O (stereo partly drawn) [compound 1, 3′-sialyl lactose]",20,10,18,25
"CC(=O)N[C@H]1[C@H]([C@H](O)[C@H](O)CO)O[C@@](OC[C@H]2O[C@@H](O[C@H]3[C@H](O)[C@@H](O)[C@H](O)O[C@@H]3CO)[C@H](O)[C@@H](O)[C@H]2O)(C(=O)O)C[C@@H]1O [compound 2, 6′-sialyl lactose]",4.5,4.5,>100,12.5
CC(=O)NC1C(O)CC(OCC2CC(O)C(O)C(OC3C(CO)OC(OCCCCCCNC(=O)CCC(=O)OC4OC(COC(=O)CCC(=O)NCCCCCCOC5OC(O)C(OC6OC(COC7(C(=O)O)CC(O)C(NC(C)=O)C([C@@H](O)[C@H](O)CO)O7)CC(O)C6O)C(O)C5O)C(OC(=O)CCC(=O)NCCCCCCOC5OC(CO)C(OC6OC(COC7(C(=O)O)CC(O)C(NC(C)=O)C(C(O)[C@H](O)CO)O7)CC(O)C6O)C(O)C5O)C4OC(=O)CCC(=O)NCCCCCCOC4OC(CO)C(OC5OC(COC6(C(=O)O)CC(O)C(NC(C)=O)C([C@@H](O)[C@H](O)CO)O6)C(O)C(O)C5O)C(O)C4O)C(O)C3O)O2)(C(=O)O)OC1C(O)[C@H](O)CO (stereo partly drawn) [Compound 4],0.85,0.15,2.0,0.45

# Source: patent US20220089631A1, “COMPOUND COMPRISING MULTIVALENT SIALYLOLIGO[…], AND COMPOSITION FOR PREVENTING OR TREATING VIRAL INFECTION DISEASES, CONTAINING SAME AS ACTIVE INGREDIENT” (priority 2018, published 2022)
